Structures can show the parent of a compound that is named as a salt. Where two headings read alike, the source gives them in different places.
Experiments:
[1] = Hygroscopicity (DVS tests); format: physicochemical; conditions: for Hygroscopicity (%): water uptake at 25° C./80% RH
[2] = Solid-state stability under 40° C./75% RH for one week; format: physicochemical
[3] = Kinetic solubility in pH 2, 5, and 7 buffers; format: physicochemical; conditions: for Kinetic Solubility: in pH 2, 5 and 7 buffers, compared with freebase Form A
ALK5 [4] = molecular target: T1, ALK5 (Homo sapiens, UniProt P36897); test: ALK5 nanobret assay in HEK293 cells transfected with ALK5-Nanoluc fusion; format: binding; conditions: luciferase tagged ALK5, fluorescent tracer competition (BRET), structure (I) tested as HCl salt
T1 sequence (P36897 34-503): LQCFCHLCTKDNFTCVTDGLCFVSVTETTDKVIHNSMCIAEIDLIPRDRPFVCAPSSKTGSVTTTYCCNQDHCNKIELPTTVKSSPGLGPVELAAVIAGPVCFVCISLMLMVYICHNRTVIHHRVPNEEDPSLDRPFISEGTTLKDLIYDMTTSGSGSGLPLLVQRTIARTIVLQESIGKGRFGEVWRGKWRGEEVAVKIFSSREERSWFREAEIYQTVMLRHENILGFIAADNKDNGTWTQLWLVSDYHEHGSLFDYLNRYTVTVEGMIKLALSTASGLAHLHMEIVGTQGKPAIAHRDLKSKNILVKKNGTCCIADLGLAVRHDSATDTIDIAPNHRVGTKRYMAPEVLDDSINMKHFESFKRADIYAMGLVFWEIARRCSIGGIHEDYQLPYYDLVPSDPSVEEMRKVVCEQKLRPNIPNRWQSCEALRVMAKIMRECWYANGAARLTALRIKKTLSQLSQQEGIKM
Experimental: An HCl salt of the compound of structure (I) was tested in an ALK5 nanobret assay. HEK293 cells were transfected with the ALK5-Nanoluc fusion (Promega) vector, which encodes for a luciferase tagged form of ALK5. For testing of the compound of structure (I), transfected cells were pretreated with drug. Subsequently, a fluorescent tracer was added and the fluorescence signal was measured.
In this assay, luminescence develops via the nanoluciferase tagged ALK5, which can transfer signal via bioluminescence energy transfer (BRET) to the tracer, yielding a fluorescent signal.

ALK5 [5] = molecular target: T1, ALK5; test: Rhabdomyosarcoma (RD) cell SMAD reporter (RDSR) assay; format: cell-based; design: The RD cell line was transfected with the pGL4.48(luc2P/SBE/Hygro) vector; endogenous in cells; host or cells: RD rhabdomyosarcoma cells stably transfected with the SBE-luciferase reporter only; conditions: RD cells transfected with pGL4.48(luc2P/SBE/Hygro) vector, pretreated with drug, induced with 50 pg/mL TGFβ1 for up to 24 hours; structure (I) tested as HCl salt

form change after DVS tests [1] | Hygroscopicity ([1]; class based on water uptake at 25° C./80% RH) | Hygroscopicity (%) [1] | Solid-state Stability [2] | Solid-state Stability ([2]; listed as HCl salt Form A) | Kinetic Solubility [3] | Kinetic Solubility ([3]; listed as HCl Form A) | disproportionation ([3]; pH 7 buffer) | IC50 (ALK5 [4]) [µM] | IC50 (ALK5 [5]) [µM] | SMILES
no form change | Slightly hygroscopic | (0.86) % | Good physicochemical properties under | good physicochemical properties | increased solubility | HCl Form A showed increased solubility | disproportionation was observed | – | – | COc1cc(Nc2nccc(Nc3cccnc3-c3ccccn3)n2)ccc1N1CCN(C)CC1 [HCl Salt Form A]
no form change | – | (0.60) % | Good physicochemical properties under | – | – | – | – | – | – | COc1cc(Nc2nccc(Nc3cccnc3-c3ccccn3)n2)ccc1N1CCN(C)CC1 [Freebase Form A]
– | – | – | – | – | – | – | – | 2.3 | 0.309 | COc1cc(Nc2nccc(Nc3cccnc3-c3ccccn3)n2)ccc1N1CCN(C)CC1 [compound of structure (I)]

— US20240075033A1, “ALK5 INHIBITORS FOR TREATING MYELODYSPLASTIC SYNDROME” (Sumitomo Pharma Oncology, Inc., priority 2019, published 2024)
